# Results published in patent US9126999B2, “Tetrahydropyrazolopyrimidine compounds” (EISAI R&D MANAGEMENT CO., LTD., priority 2012, dated 2015).
# “Also recorded” adds a separate entry of the source.
# System: DBA/1 mice
# Experiment: Pristane: DBA/1 strain lupus disease model
# Type: in vivo, mouse
# Description: Figure Legend: Female DBA/1 mice at 10-11 weeks of age were given an intraperitoneal injection of 0.5 ml pristane or PBS. Once-a-day oral dosing with Vehicle (Veh; 0.5% methyl-cellulose) or 300 mg/kg ER-892887 was begun 3.5 months after pristane injection for a total of 3 months treatment. (A) Mice were euthanized after 3 months of compound treatment, and anti-dsDNA and anti-RiboP titers were measured in blood plasma samples by ELISA (statistical significance determined by Mann-Whitney test). (B) Arthritis development was assessed monthly by visual scoring. (C) The expression of IFN-regulated genes in whole blood was measured by a qPCR panel after 3 months of treatment, and an IFN gene signature score was calculated (see Pharmacology Materials and Methods section for details regarding IFN score calculation).
# Figure Legend: Female DBA/1 mice at 11-12 weeks of age were given an intraperitoneal injection of 0.5 ml of pristane or PBS. Once-a-day oral dosing with Vehicle (Veh; 0.5% methyl-cellulose) or 33, 100, or 300 mg/kg ER-892887 was begun 2 months after pristane injection for a total of 3 months treatment. Mice were euthanized after 3 months of compound treatment, and anti-dsDNA (A), -RiboP (B), -Sm/nRNP (C), and -Histone (D) titers were measured in blood plasma samples by ELISA (statistical significance determined by Mann-Whitney test). (E) Summary of mortality observed in the study during 3 months of compound treatment. (F) The expression of IFN-regulated genes in whole blood was measured by a qPCR panel at the last time point for Vehicle and 300 mg/kg ER-892887 treated mice, and an IFN gene signature score was calculated (see Pharmacology Materials and Methods section for details regarding IFN score calculation).
# Figure Legend: Female DBA/1 mice at 11 weeks of age were given an intraperitoneal injection of 0.5 ml pristane or PBS. Once-a-day oral dosing with Vehicle (Veh; 0.5% methyl-cellulose) or 300 mg/kg ER-892887, 100 mg/kg hydroxychloroquine, 1 mg/kg prednisolone or 100 mg/kg mycophenolate was begun 2 months after pristane injection and continued for 3 months of treatment. (A) At the end of the 3 month treatment arthritis development was assessed by visual scoring of swelling and inflammation. (B) Mice were euthanized after 3 months of compound treatment, and anti-dsDNA, anti-histone, anti-Sm/RNP and anti-RiboP titers were measured in blood plasma samples by ELISA (statistical significance determined by Mann-Whitney test). ELISA values falling above or below the range of the standard curve were assigned a value equal to the highest or lowest valid measurement, as appropriate. (C) The expression of IFN-regulated genes in whole blood was measured by a qPCR panel after 3 months of treatment. […] (D) IFN scores of genes regulated by pristane in this experiment are shown.
# FIG. 14 presents the effect of compound ER-892887 on arthritis and autoantibodies in the Pristane: DBA/1 strain lupus disease model. Figure Legend: Female DBA/1 mice at 10 weeks of age were given an intraperitoneal injection of 0.5 ml pristane or PBS. At 22 weeks of age, mice were randomized into groups with equivalent median anti-dsDNA titers and treated with Vehicle (Veh; 0.5% methyl-cellulose) alone or 300 mg/kg ER-892887 once-a-day orally (QD PO). Arthritis symptoms (swelling and inflammation) were recorded monthly by blinded observers. All mice were sacrificed at 34 weeks of age (12 weeks of treatment) and blood plasma autoantibody titers were determined by ELISA. Prior to termination paws were x-rayed and scored for bone damage and erosions by two blinded analysts. (A) Top—Arthritis scores were calculated monthly in vehicle and compound dosed-groups. (A) Bottom—X-ray scores were calculated after three months of treatment. (B) Autoantibody titers were measured in terminal blood plasma samples by ELISA (statistical significance determined by Mann-Whitney test). […]
compound,measurement,setting,value
"COc1ccc([C@@H]2C[C@H](C(F)(F)F)n3nc(-c4ccc(C(=O)N5CCNCC5)cc4)cc3N2)cc1OC [ER-892887, (4-((5S,7R)-5-(3,4-dimethoxyphenyl)-7-(trifluoromethyl)-4,5,6,7-tetrahydropyrazolo[1,5-a]pyrimidin-2-yl)phenyl)(piperazin-1-yl)methanone]",IFN gene signature score,,reduction
same,RNA-related reactivity such as anti-RiboP titers,,particularly robust impact
same,arthritis severity,,reduced arthritis severity
same,"interferon gene signature score, comparison with three commonly used lupus treatments",,suppressed the interferon gene signature score significantly
same,various auto-antibodies,,suppressed
same,suppression of autoantibodies compared with hydroxychloroquine or prednisolone,at the doses tested,better
same,whole blood interferon-driven gene expression,qPCR panel,reduction; also recorded: suppressed
